According to PubChem BioAssay (NCI):
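Cultured in 96-well plates, cells were exposed to test compound for 48 hours across five concentrations. GI50 is the concentration that inhibits growth by half. TGI denotes the concentration required for complete inhibition of growth.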

Experiments:
Test in all cases: NCI anticancer screen, dose series, 48 h
HCT-116 colon = system: HCT-116 colon
UACC-62 melanoma = system: UACC-62 melanoma
PC-3 prostate = system: PC-3 prostate
SF-295 CNS = system: SF-295 CNS
COLO 205 colon = system: COLO 205 colon
KM12 colon = system: KM12 colon
NCI/ADR-RES ovarian = system: NCI/ADR-RES ovarian
MALME-3M melanoma = system: MALME-3M melanoma
MDA-MB-435 = system: MDA-MB-435
HCT-15 colon = system: HCT-15 colon
SF-539 CNS = system: SF-539 CNS
MOLT-4 leukemia = system: MOLT-4 leukemia
RXF 393 renal = system: RXF 393 renal
M14 melanoma = system: M14 melanoma
NCI-H460 lung = system: NCI-H460 lung
A498 renal = system: A498 renal
BT-549 breast = system: BT-549 breast
RPMI-8226 leukemia = system: RPMI-8226 leukemia
LOX IMVI melanoma = system: LOX IMVI melanoma
OVCAR-5 ovarian = system: OVCAR-5 ovarian
NCI-H226 lung = system: NCI-H226 lung
HS 578T breast = system: HS 578T breast
HOP-92 NSCLC = system: HOP-92 NSCLC
OVCAR-4 ovarian = system: OVCAR-4 ovarian
DU-145 prostate = system: DU-145 prostate
A549 NSCLC = system: A549 NSCLC
SK-MEL-5 melanoma = system: SK-MEL-5 melanoma
HT29 colon = system: HT29 colon
HL-60(TB) leukemia = system: HL-60(TB) leukemia
SW-620 colon = system: SW-620 colon
NCI-H522 lung = system: NCI-H522 lung
HCC-2998 colon = system: HCC-2998 colon
SR leukemia = system: SR leukemia
CAKI-1 renal = system: CAKI-1 renal
IGROV1 ovarian = system: IGROV1 ovarian
MCF7 breast = system: MCF7 breast
786-0 renal = system: 786-0 renal
SK-MEL-28 melanoma = system: SK-MEL-28 melanoma
EKVX NSCLC = system: EKVX NSCLC
SF-268 CNS = system: SF-268 CNS
UACC-257 melanoma = system: UACC-257 melanoma
NCI-H23 lung = system: NCI-H23 lung
U251 CNS = system: U251 CNS
MDA-MB-468 breast = system: MDA-MB-468 breast
TK-10 renal = system: TK-10 renal
SN12C renal = system: SN12C renal
ACHN renal = system: ACHN renal
SK-OV-3 ovarian = system: SK-OV-3 ovarian
T-47D breast = system: T-47D breast
CCRF-CEM leukemia = system: CCRF-CEM leukemia
HOP-62 NSCLC = system: HOP-62 NSCLC
OVCAR-8 ovarian = system: OVCAR-8 ovarian
OVCAR-3 ovarian = system: OVCAR-3 ovarian
K-562 leukemia = system: K-562 leukemia
SNB-19 CNS = system: SNB-19 CNS

O=C1N/C(=N\c2nccs2)S/C1=C\c1ccc([N+](=O)[O-])cc1
GI50 (HCT-116 colon): 4.44 µM | TGI (HCT-116 colon): 19 µM | GI50 (UACC-62 melanoma): 5.08 µM | TGI (UACC-62 melanoma): 23.1 µM | GI50 (PC-3 prostate): 5.98 µM | TGI (PC-3 prostate): > 100 µM | GI50 (SF-295 CNS): 5.11 µM | TGI (SF-295 CNS): 40.5 µM | GI50 (COLO 205 colon): 7.7 µM | TGI (COLO 205 colon): 23.9 µM | GI50 (KM12 colon): 5.91 µM | TGI (KM12 colon): 32.4 µM | GI50 (NCI/ADR-RES ovarian): 5.03 µM | TGI (NCI/ADR-RES ovarian): 37.3 µM | GI50 (MALME-3M melanoma): 11.2 µM | TGI (MALME-3M melanoma): 27.2 µM | GI50 (MDA-MB-435): 12 µM | TGI (MDA-MB-435): > 100 µM | GI50 (HCT-15 colon): 4.29 µM | TGI (HCT-15 colon): > 100 µM | GI50 (SF-539 CNS): 5.62 µM | TGI (SF-539 CNS): 26.9 µM | GI50 (MOLT-4 leukemia): 2.54 µM | TGI (MOLT-4 leukemia): 7.5 µM | GI50 (RXF 393 renal): 12.4 µM | TGI (RXF 393 renal): 46.3 µM | GI50 (M14 melanoma): 9.86 µM | TGI (M14 melanoma): 39.6 µM | GI50 (NCI-H460 lung): 4.12 µM | TGI (NCI-H460 lung): 19.7 µM | GI50 (A498 renal): 14.5 µM | TGI (A498 renal): 39.8 µM | GI50 (BT-549 breast): 6.87 µM | TGI (BT-549 breast): 41.4 µM | GI50 (RPMI-8226 leukemia): 3.56 µM | TGI (RPMI-8226 leukemia): 31.6 µM | GI50 (LOX IMVI melanoma): 4.75 µM | TGI (LOX IMVI melanoma): 34.2 µM | GI50 (OVCAR-5 ovarian): 16.1 µM | TGI (OVCAR-5 ovarian): 95.6 µM | GI50 (NCI-H226 lung): 12.5 µM | TGI (NCI-H226 lung): 68.2 µM | GI50 (HS 578T breast): 11.6 µM | TGI (HS 578T breast): 81.6 µM | GI50 (HOP-92 NSCLC): 4.46 µM | TGI (HOP-92 NSCLC): 38.3 µM | GI50 (OVCAR-4 ovarian): 7.01 µM | TGI (OVCAR-4 ovarian): 67.5 µM | GI50 (DU-145 prostate): 11.9 µM | TGI (DU-145 prostate): > 100 µM | GI50 (A549 NSCLC): 4.89 µM | TGI (A549 NSCLC): > 100 µM | GI50 (SK-MEL-5 melanoma): 7.45 µM | TGI (SK-MEL-5 melanoma): 20.2 µM | GI50 (HT29 colon): 18.5 µM | TGI (HT29 colon): > 100 µM | GI50 (HL-60(TB) leukemia): 3.62 µM | TGI (HL-60(TB) leukemia): 24.5 µM | GI50 (SW-620 colon): 4.77 µM | TGI (SW-620 colon): > 100 µM | GI50 (NCI-H522 lung): 7.47 µM | TGI (NCI-H522 lung): 33.9 µM | GI50 (HCC-2998 colon): 6.93 µM | TGI (HCC-2998 colon): 30.4 µM | GI50 (SR leukemia): 3.41 µM | TGI (SR leukemia): 18 µM | GI50 (CAKI-1 renal): 12.7 µM | TGI (CAKI-1 renal): 82.8 µM | GI50 (IGROV1 ovarian): 6.89 µM | TGI (IGROV1 ovarian): 30.8 µM | GI50 (MCF7 breast): 4.44 µM | TGI (MCF7 breast): 20.4 µM | GI50 (786-0 renal): 6.17 µM | TGI (786-0 renal): 72.9 µM | GI50 (SK-MEL-28 melanoma): 14 µM | TGI (SK-MEL-28 melanoma): > 100 µM | GI50 (EKVX NSCLC): 4.71 µM | TGI (EKVX NSCLC): 27.8 µM | GI50 (SF-268 CNS): 10.1 µM | TGI (SF-268 CNS): > 100 µM | GI50 (UACC-257 melanoma): 12.4 µM | TGI (UACC-257 melanoma): 32.5 µM | GI50 (NCI-H23 lung): 6.8 µM | TGI (NCI-H23 lung): 70 µM | GI50 (U251 CNS): 4.6 µM | TGI (U251 CNS): > 100 µM | GI50 (MDA-MB-468 breast): 4.62 µM | TGI (MDA-MB-468 breast): 25.8 µM | GI50 (TK-10 renal): 12.8 µM | TGI (TK-10 renal): 59.3 µM | GI50 (SN12C renal): 5.47 µM | TGI (SN12C renal): 63.5 µM | GI50 (ACHN renal): 5.49 µM | TGI (ACHN renal): 35.2 µM | GI50 (SK-OV-3 ovarian): 15.7 µM | TGI (SK-OV-3 ovarian): 63.9 µM | GI50 (T-47D breast): 5.05 µM | TGI (T-47D breast): 53.1 µM | GI50 (CCRF-CEM leukemia): 3.84 µM | TGI (CCRF-CEM leukemia): 32.5 µM | GI50 (HOP-62 NSCLC): 6.77 µM | TGI (HOP-62 NSCLC): 60.7 µM | GI50 (OVCAR-8 ovarian): 6.43 µM | TGI (OVCAR-8 ovarian): 68.9 µM | GI50 (OVCAR-3 ovarian): 4.73 µM | TGI (OVCAR-3 ovarian): 29.4 µM | GI50 (K-562 leukemia): 4.24 µM | TGI (K-562 leukemia): > 100 µM | GI50 (SNB-19 CNS): 3.58 µM | TGI (SNB-19 CNS): 70.6 µM
